`*/C=C(/*)c1c(C)cc(C(C)(C)C)cc1C` (repeat unit): the glass transition temperature was found to be 200.00 °C.
`*C(=O)Nc1ccc(Oc2ccc(-c3ccc(Oc4ccc(NC(=O)c5ccc6c(c5)C(=O)N(c5cccc(N7C(=O)c8ccc(*)cc8C7=O)c5)C6=O)cc4)cc3)cc2)cc1` (repeat unit) gave a glass transition temperature of 292.00 °C.
In turn, `*C(=O)Nc1ccc(Oc2ccc(C(c3ccc(Oc4ccc(NC(=O)c5ccc6c(c5)C(=O)N(c5ccc(Oc7cccc8c(Oc9ccc(N%10C(=O)c%11ccc(*)cc%11C%10=O)cc9)cccc78)cc5)C6=O)cc4)cc3)(C(F)(F)F)C(F)(F)F)cc2)cc1` (repeat unit) displayed a glass transition temperature of 231.00 °C.
The same measure for `*C(=O)Nc1ccc(Oc2ccc(C3(c4ccc(Oc5ccc(NC(=O)c6ccc7c(c6)C(=O)N(c6ccc(Oc8ccc(Oc9ccc(N%10C(=O)c%11ccc(*)cc%11C%10=O)cc9)cc8)cc6)C7=O)cc5)cc4)NC(=O)c4ccccc43)cc2)cc1` (repeat unit): 284.00 °C; for `*C(=O)Nc1ccc(Oc2ccc(C3(c4ccc(Oc5ccc(NC(=O)c6ccc7c(c6)C(=O)N(c6ccc(Oc8ccc(S(=O)(=O)c9ccc(Oc%10ccc(N%11C(=O)c%12ccc(*)cc%12C%11=O)cc%10)cc9)cc8)cc6)C7=O)cc5)cc4)NC(=O)c4ccccc43)cc2)cc1` (repeat unit): 283.00 °C.
The compound `*C(=O)Nc1ccc(Oc2ccc(NC(=O)c3ccc(N4C(=O)c5ccc(*)cc5C4=O)cc3)cc2)cc1` (repeat unit) yielded a glass transition temperature of 296.00 °C.
The same measure for `*C(=O)Nc1ccc(Oc2ccc(NC(=O)c3ccc4c(c3)C(=O)N(c3ccc(Cc5ccc(N6C(=O)c7ccc(*)cc7C6=O)cc5)cc3)C4=O)cc2)cc1` (repeat unit): 251.00 °C; for `*C(=O)Nc1ccc(Oc2ccc(NC(=O)c3ccc4c(c3)C(=O)N(c3ccc(Oc5ccc(C6(c7ccc(Oc8ccc(N9C(=O)c%10ccc(*)cc%10C9=O)cc8)cc7)CC7CC6C6CCCC76)cc5)cc3)C4=O)cc2)cc1` (repeat unit): 250.00 °C; for `*C(=O)Nc1ccc(Oc2ccc(NC(=O)c3ccc4c(c3)C(=O)N(c3ccc(Oc5ccc(N6C(=O)c7ccc(*)cc7C6=O)cc5)cc3)C4=O)cc2)cc1` (repeat unit): 282.00 °C.
On to `*C(=O)Nc1ccc(Oc2ccc(NC(=O)c3ccc4c(c3)C(=O)N(c3ccc(Oc5ccc(N6C(=O)c7ccc(*)cc7C6=O)cc5-c5ccccc5)c(-c5ccccc5)c3)C4=O)cc2)cc1` (repeat unit), for which the glass transition temperature worked out at 345.00 °C.
The same measure for `*C(=O)Nc1ccc(Oc2ccc(NC(=O)c3ccc4c(c3)C(=O)N(c3ccc(Oc5ccc(N6C(=O)c7ccc(*)cc7C6=O)cc5-c5ccccc5)c(-c5ccccc5)c3)C4=O)cc2-c2ccccc2)c(-c2ccccc2)c1` (repeat unit): 369.00 °C.
To `*Oc1ccc(NC(=C(C#N)C#N)c2ccc(-c3ccc(-c4ccc(C(Nc5ccc(*)cc5)=C(C#N)C#N)cc4)cc3)cc2)cc1` (repeat unit) belongs 240.00 °C; to `*Oc1ccc(NC(=C(C#N)C#N)c2ccc3cc(C(Nc4ccc(*)cc4)=C(C#N)C#N)ccc3c2)cc1` (repeat unit), 280.00 °C.
As for `*Oc1ccc(NC(=O)Nc2ccccc2CCc2ccccc2NC(=O)Nc2ccc(*)cc2)cc1` (repeat unit), the glass transition temperature turned out to be 232.00 °C.
For the compound `*Oc1ccc(NC(=O)c2cc(C(=O)Nc3ccc(*)cc3)cc(C(F)(F)C(F)(F)C(F)(F)C(F)(F)C(F)(F)C(F)(F)C(F)(F)C(F)(F)F)c2)cc1` (repeat unit), the glass transition temperature amounted to 230.00 °C.
To `*Oc1ccc(NC(=O)c2cc(C(=O)Nc3ccc(*)cc3)cc(S(=O)(=O)c3ccccc3)c2)cc1` (repeat unit) belongs 279.00 °C; to `*Oc1ccc(NC(=O)c2ccc(-c3ccc(C(=O)Nc4ccc(Oc5ccc(C6(c7ccc(*)cc7)CC7CCC6C7)cc5)cc4)cc3)cc2)cc1` (repeat unit), 296.00 °C; to `*Oc1ccc(NC(=O)c2ccc(C(=O)Nc3ccc(Oc4ccc(C(=O)c5ccc(*)cc5)cc4)cc3)cc2)cc1` (repeat unit), 160.00 °C.
Turning to `*Oc1ccc(NC(=O)c2ccc(P(=O)(c3ccccc3)c3ccc(C(=O)Nc4ccc(*)cc4)cc3)cc2)cc1` (repeat unit), the glass transition temperature turned out to be 254.00 °C.
`*Oc1ccc(NC(=O)c2ccc3cc(C(=O)Nc4ccc(Oc5ccc(C6(c7ccc(*)cc7)CC7CCC6C7)cc5)cc4)ccc3c2)cc1` (repeat unit) had a glass transition temperature of 276.00 °C.
As for `*Oc1ccc(NC(=O)c2cccc(C(=O)Nc3ccc(Oc4ccc(C(=O)c5ccc(*)cc5)cc4)cc3)c2)cc1` (repeat unit), the glass transition temperature is 145.00 °C.
To `*Oc1ccc(NC(=O)c2cccc(C(=O)Nc3ccc(Oc4ccc(C5(c6ccc(*)cc6)CC6CCC5C6)cc4)cc3)c2)cc1` (repeat unit) belongs 256.00 °C; to `*Oc1ccc(Nc2ccc(C(=O)c3ccc(C(=O)c4ccc(Nc5ccc(*)cc5)cc4)cc3)cc2)cc1` (repeat unit), 215.00 °C.
The same measure for `*c1ccc(-c2cc(-c3ccc(-c4ccccc4)cc3)cc(-c3ccc(N4C(=O)c5ccc(NC(=O)Nc6ccc(Oc7ccc(NC(=O)Nc8ccc9c(c8)C(=O)N(*)C9=O)cc7)cc6)cc5C4=O)cc3)n2)cc1` (repeat unit): 241.00 °C.
In turn, `*c1ccc(Oc2ccc(C(=O)c3ccc(C(=O)c4ccc(Oc5ccc(-c6nc(-c7ccc(-c8nc(*)c(-c9ccccc9)[nH]8)cc7)[nH]c6-c6ccccc6)cc5)cc4)cc3)cc2)cc1` (repeat unit) registered a glass transition temperature of 278.00 °C.
Compound `*c1ccc(Oc2ccc(C(=O)c3ccc(C(=O)c4ccc(Oc5ccc(-c6nc7ccccc7n6-c6ccc(-n7c(*)nc8ccccc87)cc6)cc5)cc4)cc3)cc2)cc1` (repeat unit) yielded a glass transition temperature of 238.00 °C.
The same measure for `*c1ccc(Oc2ccc(NC(=O)c3ccc(C(=O)Nc4ccc(Oc5ccc(-c6nnc(*)o6)cc5)cc4)c(Oc4ccccc4)c3)cc2)cc1` (repeat unit): 245.00 °C.
The same measure for `*c1ccc2c(c1)C(=O)N(c1ccc(C(=O)Nc3ccc(Oc4ccc(-c5ccc(Oc6ccc(NC(=O)c7ccc(N8C(=O)c9ccc(C(*)(C(F)(F)F)C(F)(F)F)cc9C8=O)cc7)cc6)cc5)cc4)cc3)cc1)C2=O` (repeat unit): 296.00 °C; for `*c1ccc2c(c1)C(=O)N(c1ccc(C(=O)Nc3ccc(Oc4ccc(C(c5ccc(Oc6ccc(NC(=O)c7ccc(N8C(=O)c9ccc(C(*)(C(F)(F)F)C(F)(F)F)cc9C8=O)cc7)cc6)cc5)(C(F)(F)F)C(F)(F)F)cc4)cc3)cc1)C2=O` (repeat unit): 293.00 °C; for `*c1ccc2c(c1)C(=O)N(c1ccc(C(=O)Nc3ccc(Oc4ccc(NC(=O)c5ccc(N6C(=O)c7ccc(C(*)(C(F)(F)F)C(F)(F)F)cc7C6=O)cc5)cc4)cc3)cc1)C2=O` (repeat unit): 322.00 °C.
In turn, `*c1cccc(C(=O)Nc2ccc(Oc3ccc(-c4ccc(Oc5ccc(NC(=O)c6cccc(N7C(=O)c8ccc(-c9ccc%10c(c9)C(=O)N(*)C%10=O)cc8C7=O)c6)cc5)cc4)cc3)cc2)c1` (repeat unit) showed a glass transition temperature of 270.00 °C.

Source of the values: the PolyMetriX glass transition set.
